Results taken from ChEMBL document CHEMBL1201862, “PubChem BioAssay data set” (2004).
Activity calls are given as the source filed them.

Assays:
[1] = biological target: T1, DNA repair protein RAD52 homolog (Homo sapiens, UniProt P43351); type: functional, biochemical
T1 sequence (P43351 whole entry): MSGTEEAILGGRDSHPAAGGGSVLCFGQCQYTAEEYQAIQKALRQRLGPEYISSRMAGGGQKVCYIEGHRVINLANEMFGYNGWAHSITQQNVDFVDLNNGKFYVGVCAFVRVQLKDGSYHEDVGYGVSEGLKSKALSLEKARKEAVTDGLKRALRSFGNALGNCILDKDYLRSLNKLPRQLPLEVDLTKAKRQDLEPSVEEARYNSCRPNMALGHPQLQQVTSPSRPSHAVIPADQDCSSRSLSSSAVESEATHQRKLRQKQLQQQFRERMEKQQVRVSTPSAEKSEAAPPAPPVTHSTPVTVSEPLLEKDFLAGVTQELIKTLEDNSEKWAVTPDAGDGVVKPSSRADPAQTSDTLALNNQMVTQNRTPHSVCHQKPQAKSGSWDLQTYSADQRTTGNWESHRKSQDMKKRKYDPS

[2] = MDA-MB-231 cell growth inhibition, dose response, cytotoxicity control for RAD54 inhibitor project, CellTiter-Glo luminescence, cherry-pick (AID 651692); type: functional, cell-based
[3] = biological target: T2, DNA repair and recombination protein RAD54-like (Homo sapiens, UniProt Q92698); assay: inhibitors of human RAD54 branch migration, confirmation, biochemical, fluorescence, cherry-picked samples, dose series (AID 651657); type: functional
T2 sequence (Q92698 whole entry): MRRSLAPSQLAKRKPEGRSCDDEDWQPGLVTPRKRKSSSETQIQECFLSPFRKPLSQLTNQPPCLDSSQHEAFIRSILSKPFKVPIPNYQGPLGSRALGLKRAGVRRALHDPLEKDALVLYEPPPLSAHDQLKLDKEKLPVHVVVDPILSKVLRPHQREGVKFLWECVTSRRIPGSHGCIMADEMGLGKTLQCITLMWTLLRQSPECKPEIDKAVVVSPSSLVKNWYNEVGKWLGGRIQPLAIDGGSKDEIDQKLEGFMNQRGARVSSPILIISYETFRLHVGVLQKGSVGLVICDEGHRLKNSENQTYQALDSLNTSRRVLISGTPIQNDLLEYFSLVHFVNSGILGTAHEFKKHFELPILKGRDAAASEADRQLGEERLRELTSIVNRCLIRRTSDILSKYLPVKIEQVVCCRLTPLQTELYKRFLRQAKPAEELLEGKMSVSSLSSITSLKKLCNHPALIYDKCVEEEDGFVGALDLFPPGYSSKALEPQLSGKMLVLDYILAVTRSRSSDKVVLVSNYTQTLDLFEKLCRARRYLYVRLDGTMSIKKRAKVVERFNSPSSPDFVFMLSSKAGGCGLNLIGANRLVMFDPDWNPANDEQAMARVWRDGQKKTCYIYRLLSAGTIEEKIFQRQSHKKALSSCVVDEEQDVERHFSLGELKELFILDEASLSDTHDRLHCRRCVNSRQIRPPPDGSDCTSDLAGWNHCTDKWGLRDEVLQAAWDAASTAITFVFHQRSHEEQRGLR

[4] = biological target: DNA dC->dU-editing enzyme APOBEC-3A (Homo sapiens, UniProt P31941); assay: Dose Response confirmation of small molecule APOBEC3A DNA Deaminase Inhibitors via a fluorescence-based single-stranded DNA deaminase assay. [Related pubchem assays (depositor defined):AID493011, AID493024]; type: functional
[5] = biological target: DNA dC->dU-editing enzyme APOBEC-3G (Homo sapiens, UniProt Q9HC16); type: functional;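 also: Dose-response counterscreen measuring inhibition of APOBEC3G DNA deaminase activity, run while confirming APOBEC3A inhibitors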
[6] = biological target: Ras and Rab interactor 1/Tyrosine-protein kinase ABL1 (Homo sapiens, UniProt P00519+Q13671); type: functional;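 also: biochemical TR-FRET dose-response test measuring inhibition of binding between Rin1 and Abl proteins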
[7] = AlphaScreen signal interference compounds, dose response, artefact control for ARNT-TACC3 interaction inhibitor project, biochemical, luminescence, cherry-pick (AID 651705); type: functional;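 also: AlphaScreen bead proximity signal that flags compounds interfering with the detection technology; potency reflects signal decrease which marks the compound as an assay artifact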
[8] = biological target: Eukaryotic translation initiation factor 4E (Mus musculus, UniProt P63073); assay: eIF4E–eIF4G protein interaction inhibitors, dose response, biochemical, TR-FRET (AID 855); type: functional;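 also: potency for disrupting eIF4E binding to eIF4GI seen as loss of FRET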
[9] = biological target: T3, Neuropeptides B/W receptor type 1 (Homo sapiens, UniProt P48145); assay: GPR7 antagonist potency, late-stage follow-up, cell-based, fluorescence, dose response, set 5 (AID 588566); type: functional
T3 sequence (P48145 whole entry): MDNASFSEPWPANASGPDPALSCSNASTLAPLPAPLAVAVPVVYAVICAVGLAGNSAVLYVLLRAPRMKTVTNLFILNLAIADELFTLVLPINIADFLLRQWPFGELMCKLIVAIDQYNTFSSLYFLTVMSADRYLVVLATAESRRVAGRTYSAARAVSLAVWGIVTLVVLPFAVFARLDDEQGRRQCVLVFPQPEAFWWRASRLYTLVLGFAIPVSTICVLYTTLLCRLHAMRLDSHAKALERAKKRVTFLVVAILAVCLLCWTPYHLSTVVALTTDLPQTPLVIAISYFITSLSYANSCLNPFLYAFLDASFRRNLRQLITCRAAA

[10] = biological target: T4, Melanin-concentrating hormone receptor 1 (Homo sapiens, UniProt Q99705); assay: Late-stage fluorescence-based counterscreen for antagonists of the G-protein coupled receptor 7 (GPR7): cell-based dose response assay to identify antagonists of the melanin-concentrating hormone receptor 1 (MCHR1) Set 5.; type: functional
[11] = biological target: T3, Neuropeptides B/W receptor type 1; assay: GPR7 antagonist potency, late-stage follow-up, cell-based, fluorescence, dose response, set 6 (AID 588583); type: functional
[12] = biological target: T4, Melanin-concentrating hormone receptor 1; assay: Late-stage fluorescence-based counterscreen for antagonists of the G-protein coupled receptor 7 (GPR7): cell-based dose response assay to identify antagonists of the melanin-concentrating hormone receptor 1 (MCHR1) Set 6.; type: functional

T4 sequence (Q99705 whole entry): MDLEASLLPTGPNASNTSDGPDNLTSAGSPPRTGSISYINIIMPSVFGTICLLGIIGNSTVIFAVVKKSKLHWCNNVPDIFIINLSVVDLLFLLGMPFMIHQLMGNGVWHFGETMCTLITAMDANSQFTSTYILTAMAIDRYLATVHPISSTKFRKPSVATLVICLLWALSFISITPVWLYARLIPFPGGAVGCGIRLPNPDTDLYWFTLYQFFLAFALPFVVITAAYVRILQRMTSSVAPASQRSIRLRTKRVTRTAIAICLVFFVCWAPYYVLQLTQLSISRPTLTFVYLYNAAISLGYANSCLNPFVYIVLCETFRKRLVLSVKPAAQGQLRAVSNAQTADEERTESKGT
Eukaryotic translation initiation factor 4E, sequence (P63073 whole entry): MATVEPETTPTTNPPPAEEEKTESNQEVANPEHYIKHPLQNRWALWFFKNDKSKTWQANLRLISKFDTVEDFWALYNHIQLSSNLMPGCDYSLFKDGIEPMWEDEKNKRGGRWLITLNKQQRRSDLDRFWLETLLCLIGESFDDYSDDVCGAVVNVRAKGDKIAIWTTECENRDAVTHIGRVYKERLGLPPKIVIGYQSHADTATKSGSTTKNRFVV
Ras and Rab interactor 1/Tyrosine-protein kinase ABL1, sequence (P00519 whole entry): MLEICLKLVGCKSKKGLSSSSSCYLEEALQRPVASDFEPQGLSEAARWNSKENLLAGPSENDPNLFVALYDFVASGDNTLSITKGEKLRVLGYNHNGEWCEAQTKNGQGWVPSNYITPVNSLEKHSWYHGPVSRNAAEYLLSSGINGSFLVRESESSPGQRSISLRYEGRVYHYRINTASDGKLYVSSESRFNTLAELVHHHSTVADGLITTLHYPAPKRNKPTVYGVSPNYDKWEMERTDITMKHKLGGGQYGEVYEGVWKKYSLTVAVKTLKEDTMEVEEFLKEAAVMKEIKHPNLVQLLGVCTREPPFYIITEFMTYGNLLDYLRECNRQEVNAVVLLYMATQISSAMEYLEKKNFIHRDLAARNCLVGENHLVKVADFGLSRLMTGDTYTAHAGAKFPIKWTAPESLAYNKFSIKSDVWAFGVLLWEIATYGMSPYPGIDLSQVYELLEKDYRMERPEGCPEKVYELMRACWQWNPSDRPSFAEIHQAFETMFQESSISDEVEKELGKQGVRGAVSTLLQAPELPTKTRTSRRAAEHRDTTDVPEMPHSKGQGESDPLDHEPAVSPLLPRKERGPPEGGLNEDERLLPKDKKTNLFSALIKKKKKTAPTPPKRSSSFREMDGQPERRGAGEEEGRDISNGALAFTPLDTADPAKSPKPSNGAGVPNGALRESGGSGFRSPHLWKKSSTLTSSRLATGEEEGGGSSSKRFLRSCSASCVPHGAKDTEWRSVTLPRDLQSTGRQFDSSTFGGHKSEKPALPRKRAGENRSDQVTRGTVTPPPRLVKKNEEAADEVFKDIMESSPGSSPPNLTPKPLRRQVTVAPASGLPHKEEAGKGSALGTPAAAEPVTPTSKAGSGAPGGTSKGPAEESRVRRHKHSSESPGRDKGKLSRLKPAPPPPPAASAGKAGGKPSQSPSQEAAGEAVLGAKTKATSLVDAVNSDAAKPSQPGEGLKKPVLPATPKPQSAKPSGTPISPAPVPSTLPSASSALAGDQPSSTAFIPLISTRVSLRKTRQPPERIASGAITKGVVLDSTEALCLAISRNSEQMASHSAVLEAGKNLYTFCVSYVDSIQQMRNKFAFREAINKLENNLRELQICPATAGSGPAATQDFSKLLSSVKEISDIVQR
Ras and Rab interactor 1/Tyrosine-protein kinase ABL1, sequence (Q13671 whole entry): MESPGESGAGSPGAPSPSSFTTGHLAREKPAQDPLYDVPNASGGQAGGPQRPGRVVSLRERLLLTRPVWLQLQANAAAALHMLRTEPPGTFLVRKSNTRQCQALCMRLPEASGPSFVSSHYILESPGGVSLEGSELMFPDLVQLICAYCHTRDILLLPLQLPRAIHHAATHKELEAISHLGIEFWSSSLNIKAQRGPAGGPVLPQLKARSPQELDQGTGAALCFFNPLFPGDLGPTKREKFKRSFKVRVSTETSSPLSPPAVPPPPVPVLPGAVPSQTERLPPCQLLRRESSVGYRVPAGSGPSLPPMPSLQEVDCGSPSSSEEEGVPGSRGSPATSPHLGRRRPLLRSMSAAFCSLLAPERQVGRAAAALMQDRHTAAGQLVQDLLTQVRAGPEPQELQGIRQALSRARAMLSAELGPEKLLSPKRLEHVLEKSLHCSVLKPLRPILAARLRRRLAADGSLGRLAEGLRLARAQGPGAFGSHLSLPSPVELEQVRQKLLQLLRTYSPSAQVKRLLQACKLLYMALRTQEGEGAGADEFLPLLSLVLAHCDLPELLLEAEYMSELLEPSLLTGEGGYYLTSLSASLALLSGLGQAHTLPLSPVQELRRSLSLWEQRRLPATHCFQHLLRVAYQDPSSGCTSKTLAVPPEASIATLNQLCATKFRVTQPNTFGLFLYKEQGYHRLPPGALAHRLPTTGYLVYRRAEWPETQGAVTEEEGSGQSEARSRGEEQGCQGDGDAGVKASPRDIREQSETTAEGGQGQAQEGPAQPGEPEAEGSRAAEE
DNA dC->dU-editing enzyme APOBEC-3A, sequence (P31941 whole entry): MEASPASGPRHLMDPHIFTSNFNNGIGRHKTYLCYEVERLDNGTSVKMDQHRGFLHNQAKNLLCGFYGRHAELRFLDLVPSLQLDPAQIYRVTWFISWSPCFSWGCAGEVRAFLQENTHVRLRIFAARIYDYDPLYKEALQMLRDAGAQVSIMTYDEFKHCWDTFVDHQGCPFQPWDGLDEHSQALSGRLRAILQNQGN
DNA dC->dU-editing enzyme APOBEC-3G, sequence (Q9HC16 whole entry): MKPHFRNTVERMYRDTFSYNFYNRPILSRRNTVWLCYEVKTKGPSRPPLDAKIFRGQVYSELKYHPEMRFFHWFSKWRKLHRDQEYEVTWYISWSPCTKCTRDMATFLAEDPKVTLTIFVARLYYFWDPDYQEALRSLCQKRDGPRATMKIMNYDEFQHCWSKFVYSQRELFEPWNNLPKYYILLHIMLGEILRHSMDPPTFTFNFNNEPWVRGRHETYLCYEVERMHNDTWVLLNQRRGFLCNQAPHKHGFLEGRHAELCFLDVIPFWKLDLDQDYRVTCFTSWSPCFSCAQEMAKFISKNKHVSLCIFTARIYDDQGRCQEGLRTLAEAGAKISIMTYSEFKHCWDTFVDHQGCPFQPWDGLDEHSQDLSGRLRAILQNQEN

For `CCN1CCN(c2ccc(NC(=O)c3cc4ccccc4cc3OC)cc2C)CC1`, the AC50 [1] was 18.2 µM (active), the AC50 [2] was 36.5 µM (active) and the AC50 [3] was 52.2 µM (active). For the same compound, the IC50 [4] was 4.24 µM (active) and the IC50 [5] was 6.67 µM (active).
In the case of `CCOC(=O)CCCCC(=O)c1[nH]c(O)nc1CN1CCOCC1`, the IC50 [6] was 0.548 µM (active).
With `CC(C)(C)C1=Nn2c(nnc2-c2ccccn2)SC1` the AC50 [7] was 107 µM (active) and the IC50 [8] was > 64 µM (inactive).
With `CCOC(=O)C(C#N)c1ccnn(Cc2cccc3ccccc23)c1=O` (centres undefined) the IC50 [9] was 1.74 µM (active) and the IC50 [10] was 15 µM (inactive).
With `N#CC(c1ccccn1)c1c(Cl)cnn(Cc2cccc3ccccc23)c1=O` (centres undefined) the IC50 [11] was 0.564 µM (active) and the IC50 [12] was 0.564 µM (active).
With `N#CC(c1ccsc1)c1c(Cl)cnn(Cc2cccc3ccccc23)c1=O` (centres undefined) the IC50 [9] was 0.325 µM (active) and the IC50 [10] was 0.794 µM (active).
